Laboratory results: patent US11213494B2 (priority 2016, dated 2022)

Experiments:
[1] = test system: AMPA-receptors; assay: Whole-cell patch-clamp recordings of nTS second-order neurons in brainstem slices; assay type: cell-based, mice; details: 10 μM in the superfusate
Experimental: Horizontal brainstem slices were prepared from 3- and 5- to 7-week-old Mecp2 Null and Wt male mice. Animals were deeply anesthetized by inhalation of isoflurane and then decapitated. Brains were removed from the skull and placed in low Ca2+, ice-cold artificial CSF (ACSF) containing the following (in mM): 125 NaCl, 3 KCl, 1.2 NaH2PO4, 1 CaCl2, 1.2 MgSO4, 2 MgCl2, 25 NaHCO3, 10 D-glucose, and 0.4 L-ascorbic acid, equilibrated to pH 7.4 with 95% O2/5% CO2, for 2-5 min. […]
Slices were placed into the recording chamber, held in place with nylon-wired grid and superfused with recording ACSF at 30-32° C. at a flow rate of 4-5 ml/min. […] Evoked, spontaneous and miniature EPSCs (eEPSCs, sPSCs, mEPSCs) were recorded from cells meeting this criterion in the whole-cell voltage-clamp configuration at a holding potential of −60 mV. […] To compare intrinsic neuronal excitability between genotypes, action-potential properties and firing frequency in response to current injection (50 pA increments) were recorded in nComm neurons as well. […]
Spontaneous and evoked postsynaptic currents were analyzed with Clampfit and Microsoft Excel. In the analysis of eEPSCs, 20 sweeps were averaged with Clampfit and the resulting eEPSC amplitudes were measured and compared between genotypes at different stimulation intensities. […]

[2] = Body weight and tolerability during LM22A-4 treatment; assay type: in vivo, mice
Experimental: (§1) Respiratory patterns were analyzed at 8, 10, and 12 weeks after birth in unrestrained mice using whole-body plethysmography as described previously. Measurements were taken from quiet breathing periods of at least 5 min total duration, and apneas were defined as pauses in breathing greater than two times the average breath duration calculated for each animal. LM22A-4 treatment. Wt and Het littermates were divided into 4 groups: Wt vehicle-treated (100 μl of 0.9% NaCl, i.p., b.i.d.), Wt drug treated (50 mg/kg LM22A-4 in 0.9% NaCl, i.p., b.i.d.), Het vehicle-treated (100 μl of 0.9% NaCl, i.p., b.i.d.), and Het drug-treated (50 mg/kg LM22A-4 in 0.9% NaCl, i.p., b.i.d.). Each mouse was treated from 8 to 13 weeks of age. Whole-body plethysmography was performed during week 12 and animals were subsequently killed and tissues harvested for TrkB Western blots and BDNF ELISA during week 13.

[3] = test system: TrkB; assay: TrkB, AKT and ERK phosphorylation assays (Western blot) in pons and medulla; assay type: in vivo, mice; details: 50 mg/kg i.p. b.i.d. for 5 weeks
Experimental: The ratios of (1) phospho-TrkB^Y817/TrkB (full-length), phospho-ERK/ERK and phospho-AKT/AKT, (2) phospho-TrkB^Y817/actin, phospho-ERK/actin and phospho-AKT/actin, (3) TrkB (full-length)/actin, ERK/actin and AKT/actin and (4) TrkB (truncated)/actin were measured by Western blot using the ECL Chemiluminescence System (GE Healthcare). Site-specific rabbit monoclonal antiphospho-TrkB^Y817 antibody was obtained from Epitomics and rabbit polyclonal TrkB antibody was obtained from Millipore. Rabbit polyclonal ERK and AKT, mouse monoclonal phospho-ERK and phospho-AKT antibodies were obtained from Cell Signaling Technology. Tissues were homogenized in a lysis buffer (containing, in mM: 20 Tris, pH 8.0, 137 NaCl, 1% Igepal CA-630, 10% glycerol, 1 PMSF, 10 μg/ml aprotinin, 1 μg/ml leupeptin, 500 μM orthovanadate). Lysates were centrifuged at 14,000×g for 10 min, then the supernatant was collected and protein concentration was determined using the BCA Protein Assay Reagent (Pierce).
as §1

[4] = in vivo; set-up: species or system mice; details: Mecp2^tm1.1Jae heterozygous (Het), mouse, ip, 50 mg/kg, brain tissue concentration (corrected for blood contamination)
Experimental: The brain concentration of LM22A-4 (custom synthesized by Ricerca Biosciences, LLC) was evaluated in Het mice 1 h after a 50 mg/kg intraperitoneal dose using reverse-phase liquid chromatography with triple-quadrupole tandem mass spectrometric (LC-MS/MS) detection. […] Brainstem and forebrain samples were homogenized with a Virsonic 100 ultrasonic homogenizer and prepared for analysis using acetonitrile precipitation by combining one volume of sample with three volumes of acetonitrile. Samples were centrifuged and the resulting supernatant was sampled for analysis using a CTC Leap PAL autosampler (Leap Technologies) and two PerkinElmer series 200 micro pumps. Chromatography was performed at ambient temperature using a 50×2.0 mm inner diameter, 4 μm Synergi Polar-RP analytical column (Phenomenex). The aqueous mobile phase (A) was 4 mM ammonium formate, pH 3.5 and the organic mobile phase (B) was 10:90 (v/v) […] ammonium formate, pH 3.5/acetonitrile. The analyte was eluted with a gradient which changed linearly from 0 to 100% B in 3 min at a flow rate of 300 μl/min. The total run time was 4.5 min and the injection volume was 10 μl. The analyte was detected on a Sciex API 3000 triple-quadrupole mass spectrometer equipped with a TurbolonSpray interface in the positive electrospray ionization mode (Applied Biosystems/MDS). […]

[5] = test system: TrkB; assay: Synaptic hyperexcitability in brainstem respiratory and autonomic circuits and apneic breathing in RTT mice; assay type: in vivo; details: for synaptic hyperexcitability in brainstem respiratory and autonomic circuits: acute
[6] = test system: Mecp2 Het mice; assay type: in vivo; details: 50 mg/kg i.p. twice daily for 4 weeks
Experimental: as §1
Comparison of respiratory parameters between Wt and Het animals in the initial phenotyping experiments were performed using unpaired Student's t test. Comparisons among Wt vehicle-treated, Wt drug-treated, Het vehicle-treated, and Het drug-treated groups in the LM22A-4 trials, including plethysmography and Western blots were performed using one-way ANOVA with post hoc Least Significant Difference test (LSD) for intergroup comparisons. Results were considered significant if the p-value was <0.05. Data are presented as the mean±SEM.

Molecule	effect on sPSCs [1]	reduction of eEPSC amplitudes ([1]; n=10) [%]	effect on body weight ([2]; Wt or Het mice, 50 mg/kg i.p. b.i.d. throughout the treatment period)	tolerability of daily treatment ([2]; heterozygous female Mecp2 mutant mice)	deficits in TrkB phosphorylation (p-TrkBY817/TrkB, p-TrkBY817/actin) ([3]; pons and medulla, 13-week-old Het mice)	decreases in p-AKT/AKT and p-AKT/actin ([3]; pons, Het mice)	effect of drug treatment on level of p-ERK/ERK ([3]; pons, Wt and Het mice)	levels of p-TrkB/TrkB and p-TrkB/actin vs wild-type controls ([3]; pons, drug-treated Het mice)	concentration at 1 h ([4]; brainstem) [nM]	concentration at 1 h ([4]; forebrain) [nM]	apneic breathing in vivo [5]	synaptic hyperexcitability in brainstem respiratory and autonomic circuits [5]	percentage of apneic animals [6]	Te (expiratory time) compared with Wt ([6]; 12-week-old Het mice)	Ttot (total breath duration) compared with Wt ([6]; 12-week-old Het mice)	breathing frequency compared with Wt ([6]; 12-week-old Het mice)	respiratory function, drug- vs vehicle-treated Wt mice ([6]; Wt mice)
N#Cc1cc2c(cc1[N+](=O)[O-])=NC(=O)C(=O)N=2 [6-cyano-7-nitroquinoxaline-2,3-dione]	completely abolished	92.2±1.4	–	–	–	–	–	–	–	–	–	–	–	–	–	–	–
O=C(NCCO)c1cc(C(=O)NCCO)cc(C(=O)NCCO)c1 [LM22A-4, N,N′,N″Tris(2-hydroxyethyl)-1,3,5-benzenetricarboxamide]	–	–	no effect	well tolerated	completely reversed	reversed	no significant effect	significantly higher	2.9	4.1	eliminate	acutely reverse	unaffected	not significantly different	not significantly different	not significantly different	no significant differences
BDNF: exogenous brain-derived neurotrophic factor, secreted protein, ligand of TrkB (protein, UniProt P23560 19-247, looked up) Neurotrophic factor BDNF …: APMKEANIRGQGGLAYPGVRTHGTLESVNGPKAGSRGLTSLADTFEHVIEELLDEDQKVRPNEENNKDADLYTSRVMLSSQVPLEPPLLFLLEEYKNYLDAANMSMRVRRHSDPARRGELSVCDSISEWVTAADKKTAVDMSGGTVTVLEKVPVSKGQLKQYFYETKCNPMGYTKEGCRGIDKRHWNSQCRTTQSYVRALTMDSKKRIGWRFIRIDTSCVCTLTIKRGR	–	–	–	–	–	–	–	–	–	–	eliminate	acutely reverse	–	–	–	–	–
